39 molecules from patent publication US6949574B2 (Bristol-Myers Squibb Company, priority 2002, dated 2005) can be followed below.

System in one series: not given
Assay: not given
Settings: not given
`O=C(Nc1ccccc1Oc1ccccc1)O/N=C/c1ccc(F)cc1` [Example 89, 4-Fluorobenzaldehyde, O-[[(2-phenoxyphenyl)amino]carbonyl]oxime] returned a melting point of 141.5 to 142 °C.

With `O=C(Nc1ccccc1Oc1ccccc1)O/N=C/c1ccccc1` [Example 90, Benzaldehyde, O-[[(2-phenoxyphenyl)amino]carbonyl]oxime], the melting point lay within 141.5 to 142 °C.

`CCCCOc1ccc(C(CC)NC(=O)Oc2ccc3ncccc3c2)cc1` (stereo not drawn) [Example 125, [1-(4-Butoxy-phenyl)-propyl]-carbamic acid quinolin-6-yl ester] showed a melting point of 115 to 118 °C.

For the next series, the target named is T1, human FAAH (Homo sapiens, UniProt O00519).
T1 construct: expressed in transfected cells; host or cells: H4 cells (H4-FAAH, Geneticin-selected); crude membrane homogenates
T1 sequence (O00519 1-579): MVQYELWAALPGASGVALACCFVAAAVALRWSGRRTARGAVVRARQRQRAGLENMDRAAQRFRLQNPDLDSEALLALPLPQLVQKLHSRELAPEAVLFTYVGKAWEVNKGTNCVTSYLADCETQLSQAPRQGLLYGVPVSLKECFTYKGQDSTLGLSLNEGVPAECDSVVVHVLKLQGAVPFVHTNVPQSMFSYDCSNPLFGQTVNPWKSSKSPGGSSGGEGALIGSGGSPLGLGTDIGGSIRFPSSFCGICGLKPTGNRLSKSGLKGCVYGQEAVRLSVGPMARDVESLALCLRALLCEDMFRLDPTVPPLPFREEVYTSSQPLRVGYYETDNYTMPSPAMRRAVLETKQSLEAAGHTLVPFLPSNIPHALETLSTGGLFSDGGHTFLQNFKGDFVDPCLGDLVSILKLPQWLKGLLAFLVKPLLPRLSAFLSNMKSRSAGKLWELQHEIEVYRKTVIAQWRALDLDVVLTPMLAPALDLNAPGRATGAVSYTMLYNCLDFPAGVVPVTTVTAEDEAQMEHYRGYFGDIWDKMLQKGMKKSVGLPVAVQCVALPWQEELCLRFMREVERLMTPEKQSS
Nature of the series: FAAH activity in membrane homogenates of H4-FAAH cells, [3H]-anandamide hydrolysis.
Settings: not given
Format: biochemical. Summed up: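 Membranes (240 ng protein) from H4 cells expressing transfected human FAAH, incubated 1 h at room temperature in 125 mM Tris-Cl, pH 9.0, with 1.67 nM [3H]-anandamide plus 10 μM anandamide. Aqueous [3H]-ethanolamine counted after methanol/dichloroethane extraction; background set with 10 μM ATFMK. IC50 from four-parameter logistic fit.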
For `CCc1ccc(-c2ccc(NC(=O)Oc3ccccc3F)cc2)cc1` [Example 124, 4′-Ethyl-[1,1′-biphenyl]-4-ylcarbamic acid, 2-fluorophenyl ester], the concentration for half-maximal inhibition (IC50) is greater than 500 nM.

The same series, now with this note: H4-FAAH cell membranes, 10 μM anandamide, room temperature, one hour; read-out: IC50.
Turning to `O=C(Nc1ccccc1Oc1ccccc1)O/N=C/c1ccc(F)cc1` [Example 89, 4-Fluorobenzaldehyde, O-[[(2-phenoxyphenyl)amino]carbonyl]oxime], the 50% inhibitory concentration (IC50) was greater than 500 nM.

Regarding `O=C(Nc1ccccc1Oc1ccccc1)O/N=C/c1ccccc1` [Example 90, Benzaldehyde, O-[[(2-phenoxyphenyl)amino]carbonyl]oxime], the IC50 was 10 to 100 nM.

Turning to `CCCCOc1ccc(CNC(=O)Oc2cccc(N(C)C)c2)cc1` [Example 118, 4-(Butoxyphenylmethyl)carbamic acid, 3-(dimethylamino)phenyl ester], the IC50 is 10 to 100 nM.

Regarding `CCCCOc1ccc(CNC(=O)Oc2ccc(C(F)(F)F)cc2)cc1` [Example 119, 4-(Butoxyphenylmethyl)carbamic acid, 4-(trifluoromethyl)phenyl ester], the IC50 was in the range of 10 to 100 nM.

For the molecule `CCCCOc1ccc(CNC(=O)Oc2ccc(F)cc2F)cc1` [Example 120, 4-(Butoxyphenylmethyl)carbamic acid, 2,4-difluorophenyl ester], the IC50 was less than 10 nM.

On to `CCCCOc1ccc(CNC(=O)Oc2ccc(F)cc2)cc1` [Example 121, 4-(Butoxyphenylmethyl)carbamic acid, 4-fluorophenyl ester], for which the half-inhibitory concentration (IC50) was less than 10 nM.

Regarding `CCCCOc1ccc(CNC(=O)Oc2cccc(Cl)c2)cc1` [Example 122, 4-(Butoxyphenylmethyl)carbamic acid, 3-chlorophenyl ester], the IC50 lay in the range of 10 to 100 nM.

For the molecule `O=C(Nc1ccc(Oc2ccccc2)cc1)Oc1ccccc1F` [Example 123, 4-Phenoxyphenylcarbamic acid, 2-fluorophenyl ester], the IC50 is greater than 500 nM.

Take `CCCCOc1ccc(C(CC)NC(=O)Oc2ccc3ncccc3c2)cc1` (stereo not drawn) [Example 125, [1-(4-Butoxy-phenyl)-propyl]-carbamic acid quinolin-6-yl ester]: the IC50 lay in the range of 10 to 100 nM.

For the molecule `CCCCOc1ccc(C(CC)NC(=O)Oc2ccc(OC)cc2)cc1` (stereo not drawn) [Example 126, [1-(4-Butoxy-phenyl)-propyl]-carbamic acid 4-methoxy-phenyl ester], the 50% inhibitory concentration (IC50) lay in the range of 10 to 100 nM.

Turning to `CCCCOc1ccc(C(CC)NC(=O)Oc2cccc3ccccc23)cc1` (stereo not drawn) [Example 127, [1-(4-Butoxy-phenyl)-propyl]-carbamic acid naphthalen-1-yl ester], the IC50 was 101 to 500 nM.

Take `CCCCOc1ccc(C(CC)NC(=O)Oc2ccc3ccccc3c2)cc1` (stereo not drawn) [Example 128, [1-(4-Butoxy-phenyl)-propyl]-carbamic acid naphthalen-2-yl ester]: the IC50 was 10 to 100 nM.

Consider `CCCCOc1ccc(C(CC)NC(=O)Oc2ccc(C(C)C)cc2)cc1` (stereo not drawn) [Example 129, [1-(4-Butoxy-phenyl)-propyl]-carbamic acid 4-isopropyl-phenyl ester], for which the IC50 lay in the range of 101 to 500 nM.

In the case of `CCCCOc1ccc(C(CC)NC(=O)Oc2cccc(C(F)(F)F)c2)cc1` (stereo not drawn) [Example 130, [1-(4-Butoxy-phenyl)-propyl]-carbamic acid 3-trifluoromethyl-phenyl ester], the IC50 lay in the range of 10 to 100 nM.

Regarding `CCCCOc1ccc(C(CC)NC(=O)Oc2ccc(F)cc2F)cc1` (stereo not drawn) [Example 131, [1-(4-Butoxy-phenyl)-propyl]-carbamic acid 2,4-difluoro-phenyl ester], the half-maximal inhibitory concentration (IC50) was in the range of 10 to 100 nM.

Take `CCCCOc1ccc(C(CC)NC(=O)Oc2ccc(F)cc2)cc1` (stereo not drawn) [Example 132, [1-(4-Butoxy-phenyl)-propyl]-carbamic acid 4-fluoro-phenyl ester]: the concentration for half-maximal inhibition (IC50) is 10 to 100 nM.

For `CCCCOc1ccc(C(CC)NC(=O)Oc2ccccc2)cc1` (stereo not drawn) [Example 134, [1-(4-Butoxy-phenyl)-propyl]-carbamic acid phenyl ester], the IC50 fell in the range of 10 to 100 nM.

`CCCCOc1ccc(C(CC)NC(=O)Oc2ccccc2F)cc1` (stereo not drawn) [Example 135, [1-(4-Butoxy-phenyl)-propyl]-carbamic acid 2-fluoro-phenyl ester]: the IC50 is less than 10 nM.

In the case of `CCCCCCCCC(=O)Nc1ccc(NC(=O)O/N=C/c2ccccc2)cc1` [Example 136, Benzaldehyde, O-[[(4-Nonanoylamino-phenyl)amino]carbonyl]oxime], the IC50 is 10 to 100 nM.

For the molecule `CCCCCCCCC(=O)Nc1ccc(NC(=O)O/N=C/c2ccc(F)cc2)cc1` [Example 137, 4-Fluorobenzaldehyde, O-[[(4-Nonanoylamino-phenyl)amino]carbonyl]oxime], the half-maximal inhibitory concentration (IC50) was in the range of 10 to 100 nM.

With `CCCCCCCCC(=O)Nc1ccc(NC(=O)O/N=C/c2cccc(C(F)(F)F)c2)cc1` [Example 138, 3-Trifluoromethylbenzaldehyde, O-[[(4-Nonanoylamino-phenyl)amino]carbonyl]oxime], the IC50 was in the range of 10 to 100 nM.

For `CCCCCCCCC(=O)Nc1ccc(NC(=O)O/N=C/c2ccc(F)cc2F)cc1` [Example 139, 2,4-Difluorobenzaldehyde, O-[[(4-Nonanoylamino-phenyl)amino]carbonyl]oxime], the IC50 is less than 10 nM.

In the case of `CCCCCCCCC(=O)Nc1ccc(NC(=O)O/N=C/c2ccc(F)c(F)c2)cc1` [Example 140, 3,4-Difluorobenzaldehyde, O-[[(4-Nonanoylamino-phenyl)amino]carbonyl]oxime], the IC50 was in the range of 10 to 100 nM.

Regarding `O=C(Nc1ccc2[nH]ccc2c1)O/N=C/c1cccnc1` [Example 141, 3-Pyridinecarboxaldehyde, O-[[(1H-indol-5-yl)amino]carbonyl]oxime], the IC50 is greater than 500 nM.

On to `O=C(Nc1ccc2[nH]ccc2c1)O/N=C/c1ccc(F)cc1` [Example 142, 4-Fluorobenzaldehyde, O-[[(1H-indol-5-yl)amino]carbonyl]oxime], for which the IC50 was greater than 500 nM.

With `O=C(Nc1ccc2[nH]ccc2c1)O/N=C/c1ccccc1` [Example 143, Benzaldehyde, O-[[(1H-indol-5-yl)amino]carbonyl]oxime], the IC50 was greater than 500 nM.

As for `O=C(Nc1c[nH]c2ccccc12)O/N=C/c1ccc(F)cc1` [Example 144, 4-Fluorobenzaldehyde, O-[[(1H-indol-3-yl)amino]carbonyl]oxime], the IC50 is greater than 500 nM.

Take `O=C(Nc1c[nH]c2ccccc12)O/N=C/c1ccccc1` [Example 145, Benzaldehyde, O-[[(1H-indol-3-yl)amino]carbonyl]oxime]: the IC50 is greater than 500 nM.

Regarding `O=C(Nc1ccc(Oc2ccncc2)cc1)O/N=C/c1ccc(F)cc1` [Example 146, 4-Fluorobenzaldehyde, O-[[[4-[(4-pyridinyl)oxy]phenyl]amino]carbonyl]oxime], the 50% inhibitory concentration (IC50) is 101 to 500 nM.

In the case of `O=C(Nc1ccc(Oc2ccccn2)cc1)O/N=C/c1cccnc1` [Example 147, 3-Pyridinecarboxaldehyde, O-[[[4-[(2-pyridinyl)oxy]phenyl]amino]carbonyl]oxime], the IC50 is 101 to 500 nM.

`O=C(Nc1ccc(Oc2ccccn2)cc1)O/N=C/c1ccc(F)cc1` [Example 148, 4-Fluorobenzaldehyde, O-[[[4-[(2-pyridinyl)oxy]phenyl]amino]carbonyl]oxime]: the IC50 was 10 to 100 nM.

`O=C(Nc1ccc(Oc2ccccn2)cc1)O/N=C/c1ccccc1` [Example 149, Benzaldehyde, O-[[[4-[(2-pyridinyl)oxy]phenyl]amino]carbonyl]oxime]: the 50% inhibitory concentration (IC50) was 10 to 100 nM.

Consider `O=C(Nc1ccc(Oc2cccnc2)cc1)O/N=C/c1ccc(F)cc1` [Example 150, 4-Fluorobenzaldehyde, O-[[[4-[(3-pyridinyl)oxy]phenyl]amino]carbonyl]oxime], for which the IC50 is less than 10 nM.

With `O=C(Nc1ccc(Oc2cccnc2)cc1)O/N=C/c1ccccc1` [Example 151, Benzaldehyde, O-[[[4-[(3-pyridinyl)oxy]phenyl]amino]carbonyl]oxime], the 50% inhibitory concentration (IC50) was less than 10 nM.

Consider `O=C(Nc1ccc2oc3ccccc3c2c1)O/N=C/c1cccnc1` [Example 152, 3-Pyridinecarboxaldehyde, O-[[(2-dibenzofuranyl)amino]carbonyl]oxime], for which the 50% inhibitory concentration (IC50) was 101 to 500 nM.

For the molecule `O=C(Nc1ccc2oc3ccccc3c2c1)O/N=C/c1ccc(F)cc1` [Example 153, 4-Fluorobenzaldehyde, O-[[(2-dibenzofuranyl)amino]carbonyl]oxime], the half-inhibitory concentration (IC50) lay within 10 to 100 nM.

As to `O=C(Nc1ccc2oc3ccccc3c2c1)O/N=C/c1ccccc1` [Example 154, Benzaldehyde, O-[[(2-dibenzofuranyl)amino]carbonyl]oxime], the half-inhibitory concentration (IC50) was 10 to 100 nM.

`CCCCOc1ccc(NC(=O)O/N=C(/C)Cl)cc1` [Example 155, (1Z)-N-[[[(4-butoxyphenyl)amino]carbonyl]oxy]ethanimidoyl chloride]: the half-inhibitory concentration (IC50) is less than 10 nM.

The term melting point denotes the temperature of the solid-liquid transition. Broadly, the IC50 is the point on the concentration scale where inhibition reaches its midpoint.
